Measurements as given in PubChem BioAssay AID2060503 (Molecular Pharmacology Branch, DTP, NCI, 2025).

System: 817829-284-R-J1-PDC complex spheroids, viability
Test: Anticancer human tumor 817829-284-R-J1-PDC patient-derived colon adenocarcinoma cell line growth inhibition [GQUAD]
Settings: for IC50: curve of first compound; for viability, T/C: stronger effect = lower value
Summary of the method: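 Tumor cells were grown as complex spheroids with HUVEC endothelial cells and mesenchymal stem cells as stroma. G-quadruplex stabilizers were combined with targeted agents over half-log dilutions from near the clinical Cmax, or from 10 microM.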

[1] = second compound 0.0316 µM, first compound 0.0316 µM
[2] = second compound 0.0316 µM, first compound 0.1 µM
[3] = second compound 0.0316 µM, first compound 0.316 µM
[4] = second compound 0.0316 µM, first compound 1 µM
[5] = second compound 0.0316 µM, first compound 3.16 µM
[6] = second compound 0.0316 µM, first compound 10 µM
[7] = second compound 0.1 µM, first compound 0.0316 µM
[8] = second compound 0.1 µM, first compound 0.1 µM
[9] = second compound 0.1 µM, first compound 0.316 µM
[10] = second compound 0.1 µM, first compound 1 µM
[11] = second compound 0.1 µM, first compound 3.16 µM
[12] = second compound 0.1 µM, first compound 10 µM
[13] = second compound 0.316 µM, first compound 0.0316 µM
[14] = second compound 0.316 µM, first compound 0.1 µM
[15] = second compound 0.316 µM, first compound 0.316 µM
[16] = second compound 0.316 µM, first compound 1 µM
[17] = second compound 0.316 µM, first compound 3.16 µM
[18] = second compound 0.316 µM, first compound 10 µM
[19] = second compound 1 µM, first compound 0.0316 µM
[20] = second compound 1 µM, first compound 0.1 µM
[21] = second compound 1 µM, first compound 0.316 µM
[22] = second compound 1 µM, first compound 1 µM
[23] = second compound 1 µM, first compound 3.16 µM
[24] = second compound 1 µM, first compound 10 µM
[25] = second compound 3.16 µM, first compound 0.0316 µM
[26] = second compound 3.16 µM, first compound 0.1 µM
[27] = second compound 3.16 µM, first compound 0.316 µM
[28] = second compound 3.16 µM, first compound 1 µM
[29] = second compound 3.16 µM, first compound 3.16 µM
[30] = second compound 3.16 µM, first compound 10 µM
[31] = second compound 10 µM, first compound 0.0316 µM
[32] = second compound 10 µM, first compound 0.1 µM
[33] = second compound 10 µM, first compound 0.316 µM
[34] = second compound 10 µM, first compound 1 µM
[35] = second compound 10 µM, first compound 3.16 µM
[36] = second compound 10 µM, first compound 10 µM
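Also: spheroids exposed to agents for 7 days before readout.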
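For viability, T/C in this document: percent viability relative to DMSO vehicle control taken as 100%.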

In the case of `C=CCn1c(=O)c2cnc(Nc3ccc(N4CCN(C)CC4)cc3)nc2n1-c1cccc(C(C)(C)O)n1` + Cc1cnc(CNC(=O)c2c(=O)c3ccc(N4CCCN(C)CC4)nc3n3c2sc2ccccc23)cn1, the IC50 (second compound 0.0316 µM) is reported as 52.9 nM, the IC50 (second compound 0.1 µM) is reported as under 31.6 nM and the IC50 (second compound 0.316 µM) is reported as under 31.6 nM. The IC50 (second compound 1 µM) was under 31.6 nM, the IC50 (second compound 3.16 µM) was under 31.6 nM and the IC50 (second compound 10 µM) was under 31.6 nM. The viability, T/C [1] was 61.2%, the viability, T/C [2] was 35.9% and the viability, T/C [3] was 17.1%. The viability, T/C [4] was 6.1%, the viability, T/C [5] was 4.9% and the viability, T/C [6] was 4.63%. It also gave a viability, T/C [7] of 25.2%, a viability, T/C [8] of 25.4% and a viability, T/C [9] of 13.4%. For the same molecule, the viability, T/C [10] was 10.5%, the viability, T/C [11] was 7.47% and the viability, T/C [12] was 6.17%. For the same molecule, the viability, T/C [13] was 20.3%, the viability, T/C [14] was 18.2% and the viability, T/C [15] was 15.1%. It also gave a viability, T/C [16] of 10.6%, a viability, T/C [17] of 8.59% and a viability, T/C [18] of 7.12%. The viability, T/C [19] was 16.9%, the viability, T/C [20] was 20.6% and the viability, T/C [21] was 13.9%. It also gave a viability, T/C [22] of 10.2%, a viability, T/C [23] of 7.61% and a viability, T/C [24] of 6.9%. The viability, T/C [25] was 18.4%, the viability, T/C [26] was 17% and the viability, T/C [27] was 14.1%. The viability, T/C [28] was 9.62%, the viability, T/C [29] was 6.71% and the viability, T/C [30] was 6.66%. The viability, T/C [31] was 0.11%, the viability, T/C [32] was 0.15% and the viability, T/C [33] was 0.15%. For the same molecule, the viability, T/C [34] was 0.14%, the viability, T/C [35] was 0.17% and the viability, T/C [36] was 0.2%.
In the case of `O=C(NO)c1cnc(N2CCN(S(=O)(=O)c3ccc4ccccc4c3)CC2)nc1` + Cc1cnc(CNC(=O)c2c(=O)c3ccc(N4CCCN(C)CC4)nc3n3c2sc2ccccc23)cn1, the IC50 (second compound 0.0316 µM) is reported as 53.3 nM, the IC50 (second compound 0.1 µM) is reported as under 31.6 nM and the IC50 (second compound 0.316 µM) is reported as under 31.6 nM. The IC50 (second compound 1 µM) was under 31.6 nM, the IC50 (second compound 3.16 µM) was under 31.6 nM and the IC50 (second compound 10 µM) was under 31.6 nM. It also gave a viability, T/C [1] of 77.5%, a viability, T/C [2] of 16.4% and a viability, T/C [3] of 5.04%. The viability, T/C [4] was 0.12%, the viability, T/C [5] was 0.03% and the viability, T/C [6] was 0.07%. It also gave a viability, T/C [7] of 19.2%, a viability, T/C [8] of 21.4% and a viability, T/C [9] of 3.6%. It also gave a viability, T/C [10] of 0.1%, a viability, T/C [11] of 0.02% and a viability, T/C [12] of 0.06%. For the same molecule, the viability, T/C [13] was 18.8%, the viability, T/C [14] was 18.1% and the viability, T/C [15] was 4.03%. For the same molecule, the viability, T/C [16] was 0.05%, the viability, T/C [17] was 0.02% and the viability, T/C [18] was 0.06%. The viability, T/C [19] was 17.5%, the viability, T/C [20] was 16.4% and the viability, T/C [21] was 1.77%. For the same molecule, the viability, T/C [22] was 0.04%, the viability, T/C [23] was 0.03% and the viability, T/C [24] was 0.07%. For the same molecule, the viability, T/C [25] was 14.8%, the viability, T/C [26] was 12.7% and the viability, T/C [27] was 0.09%. For the same molecule, the viability, T/C [28] was 0.05%, the viability, T/C [29] was 0.06% and the viability, T/C [30] was 0.09%. It also gave a viability, T/C [31] of 0.07%, a viability, T/C [32] of 0.11% and a viability, T/C [33] of 0.13%. The viability, T/C [34] was 0.09%, the viability, T/C [35] was 0.14% and the viability, T/C [36] was 0.15%.
